ChEMBL document CHEMBL5236595, “JDQ443, a Structurally Novel, Pyrazole-Based, Covalent Inhibitor of KRASG12C for the Treatment of Solid Tumors” (J Med Chem, 2022)
pIC50: −log10 of the molar value. Converted amounts (≈) assume the structure as drawn.

Columns and labels:
[1] = system: GTPase KRas (Homo sapiens), P01116 [G12C]; assay: Displacement of [acrylamide-2,3-3H2]-N-(3-fluoro-4-(2-methyl-3-(5-methyl-1H- indazole-4-yl)-1H-pyrrolo[ 2,3-b]pyridin-1-yl)-phenyl from KRAS G12C mutant (unknown origin) assessed as ratio of Kinact/Ki by competitive scintillation proximity assay
GTPase KRas = GTPase KRas (Homo sapiens, UniProt P01116, G12C); assay: Inhibition of KRAS G12C mutant in human NCI-H358 cells assessed as reduction in ERK phosphorylation incubated for 6 hrs by MSD assay; format: cell-based
[2] = Apparent permeability across apical to basolateral side in MDCK-MDR1 cells at 10 uM after 2 hrs by LC-MS/MS analysis; format: ADME, cell-based, Canis lupus familiaris; conditions: dog
[3] = Aqueous solubility of compound in pH 4; format: physicochemical; conditions: aqueous medium
[4] = Lipophilicity, logD of compound at pH 7.4; format: physicochemical; conditions: buffer
[5] = AUC in human MIA PaCa-2 cells xenografted mouse at 30 mg/kg, po; format: ADME, organism-based; set-up: dose 30 mg/kg, route po; conditions: in vivo
[6] = Cmax in human MIA PaCa-2 cells xenografted mouse at 30 mg/kg, po; format: ADME, organism-based; set-up: dose 30 mg/kg, route po; conditions: in vivo
[7] = Drug concentration in human MIA PaCa-2 cells xenografted mouse blood at 100 mg/kg, po after 40 mins; format: ADME, organism-based; conditions: whole blood, read-out: Drug uptake
[8] = Half life in human MIA PaCa-2 cells xenografted mouse at 100 mg/kg, po; format: ADME, organism-based; conditions: in vivo
[9] = system: GTPase KRas (Homo sapiens), P01116 [G12C]; assay: In vivo target occupancy at KRAS G12C mutant in human MIA PaCa-2 cells xenografted mouse assessed as decrease in free KRAS G12C level at 100 mg/kg, po after 3 hrs; format: functional, organism-based
[10] = system: GTPase KRas (Homo sapiens), P01116 [G12C]; assay: In vivo target occupancy at KRAS G12C mutant in human MIA PaCa-2 cells xenografted mouse assessed as decrease in free KRAS G12C level at 100 mg/kg, po after 24 hrs; format: functional, organism-based
[11] = Aqueous solubility of compound in pH 6.8; format: physicochemical; conditions: aqueous medium

Row | SMILES | Ratio [1] [mM⁻¹ s⁻¹] | pIC50 (GTPase KRas) | Papp A→B at 2 h, 10 µM [2] [×10⁻⁶ cm/s] | logD [4] | solubility [11] [µM] | further results
1 | C=CC(=O)N1CC2(CC(n3nc(-c4cccnc4)c(-c4c(Cl)c(C)cc5[nH]ncc45)c3CC#N)C2)C1 | 0.2 |  |  |  |  | 
2 | C=CC(=O)N1CC2(CC(n3nc(-c4ccc5c(cnn5CCN(C)C)c4)c(-c4c(Cl)c(C)cc5[nH]ncc45)c3C)C2)C1 | 150 | 7.52 | 0.9 | 3.7 |  | solubility [3]: 850 µM (≈ 496 µg/mL); AUC [5]: 0.5 µM·h; Cmax [6]: 300 nM
3 | C=CC(=O)N1CC2(CC(n3nc(-c4ccccc4)c(-c4c(Cl)c(C)cc5[nH]ncc45)c3C)C2)C1 | 60 | 7.70 |  | 4.9 | 10 (≈ 4.72 µg/mL) | concentration at 40 min [7]: 4000 nM; half-life [8]: 2.5 h; Occ [9]: 20%; Occ [10]: 40%
4 | C=CC(=O)N1CC2(CC(n3nc(-c4ccc5c(c4)ncn5C)c(-c4c(Cl)c(C)cc5[nH]ncc45)c3C)C2)C1 | 24 | 6.85 | 3.8 | 3.9 | 40 (≈ 21 µg/mL) | 
5 | C=CC(=O)N1CC2(CC(n3nc(-c4cccnc4)c(-c4c(Cl)ccc5[nH]ncc45)c3C)C2)C1 | 1.3 | 6.30 |  |  |  | 
6 | C=CC(=O)N1CC2(CC(n3nc(-c4cccnc4)c(-c4c(Cl)c(C)cc5[nH]ncc45)c3C(F)F)C2)C1 | 3 |  |  |  |  | 
